From the supplement of paper PMC10307832

What was measured:
Test in all cases: relative viability (nuclei count vs DMSO), 5 days (fraction); higher = more cells survive
MK-8033 + Decitabine = compound: Cn1cc(-c2cnc3ccc4ccc(CS(=O)(=O)NCc5ccccn5)cc4c(=O)c3c2)cn1 [MK-8033] + Nc1ncn([C@H]2C[C@H](O)[C@@H](CO)O2)c(=O)n1 [Decitabine] (partner 2 µM)
In short: (§1)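 Relative viability divides the nuclei count in treated wells by that in vehicle wells. Lung cancer cell lines were seeded in 1536-well plates, dosed by pin tool the next day, and fixed and stained after 5 days in one step with final 0.05% Triton X-100, 1% formaldehyde and 1 ug/ml Hoechst. Dosing was a single drug or a fixed anchor-drug dose plus five library-drug doses (not always all listed) in √10 steps, and values are medians of duplicate plates imaged at 4×.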

Irinotecan + Tozasertib = compound: CCc1c2c(nc3ccc(OC(=O)N4CCC(N5CCCCC5)CC4)cc13)-c1cc3c(c(=O)n1C2)COC(=O)[C@]3(O)CC [Irinotecan] + Cc1cc(Nc2cc(N3CCN(C)CC3)nc(Sc3ccc(NC(=O)C4CC4)cc3)n2)n[nH]1 [Tozasertib] (partner 0.1 µM)
In short: as §1

MK-8033 + Alpelisib = compound: Cn1cc(-c2cnc3ccc4ccc(CS(=O)(=O)NCc5ccccn5)cc4c(=O)c3c2)cn1 [MK-8033] + Cc1nc(NC(=O)N2CCC[C@H]2C(N)=O)sc1-c1ccnc(C(C)(C)C(F)(F)F)c1 [Alpelisib] (partner 2 µM)
In short: as §1

MK-8033 + Palbociclib = compound: Cn1cc(-c2cnc3ccc4ccc(CS(=O)(=O)NCc5ccccn5)cc4c(=O)c3c2)cn1 [MK-8033] + CC(=O)c1c(C)c2cnc(Nc3ccc(N4CCNCC4)cn3)nc2n(C2CCCC2)c1=O [Palbociclib] (partner 0.5 µM)
In short: as §1

Cell Line | relative viability (MK-8033 + Decitabine; first compound 0.02 µM) | relative viability (MK-8033 + Decitabine; first compound 0.06325 µM) | relative viability (MK-8033 + Decitabine; first compound 0.2 µM) | relative viability (MK-8033 + Decitabine; first compound 0.6325 µM) | relative viability (MK-8033 + Decitabine; first compound 2 µM) | relative viability (Irinotecan + Tozasertib; first compound 0.6325 µM) | relative viability (Irinotecan + Tozasertib; first compound 2 µM) | relative viability (Irinotecan + Tozasertib; first compound 6.325 µM) | relative viability (Irinotecan + Tozasertib; first compound 20 µM) | relative viability (MK-8033 + Alpelisib; first compound 0.02 µM) | relative viability (MK-8033 + Alpelisib; first compound 0.06325 µM) | relative viability (MK-8033 + Alpelisib; first compound 0.2 µM) | relative viability (MK-8033 + Alpelisib; first compound 0.6325 µM) | relative viability (MK-8033 + Alpelisib; first compound 2 µM) | relative viability (MK-8033 + Palbociclib; first compound 0.02 µM) | relative viability (MK-8033 + Palbociclib; first compound 0.06325 µM) | relative viability (MK-8033 + Palbociclib; first compound 0.2 µM) | relative viability (MK-8033 + Palbociclib; first compound 0.6325 µM) | relative viability (MK-8033 + Palbociclib; first compound 2 µM)
NCI-H2087 | 0.223 | 0.159 | 0.289 | 0.272 | 0.277 | 0.184 | 0.239 | 0.36 | 0.192 | 1.15 | 1.05 | 1.05 | 1.05 | 1 | 0.193 | 0.21 | 0.248 | 0.26 | 0.235
EMC-BAC-2 | 0.941 | 0.762 | 0.967 | 0.982 | 0.938 | 0.263 | 0.269 | 0.259 | 0.406 | 0.666 | 0.709 | 0.743 | 0.713 | 0.68 | 0.519 | 0.485 | 0.528 | 0.511 | 0.505
SW 900 | 0.483 | 0.328 | 0.496 | 0.549 | 0.41 | 0.379 | 0.528 | 0.439 | 0.485 | – | – | – | – | – | 0.518 | 0.536 | 0.493 | 0.519 | 0.495
NCI-H1623 | – | – | – | – | – | 0.343 | 0.34 | 0.227 | 0.227 | – | – | – | – | – | – | – | – | – | –
NCI-H647 | 0.33 | 0.362 | 0.382 | 0.372 | 0.305 | 0.24 | 0.294 | 0.151 | 0.0868 | 1.18 | 1.02 | 0.929 | 1.16 | 1.07 | 0.365 | 0.338 | 0.351 | 0.404 | 0.43
NCI-H520 | 0.525 | 0.485 | 0.527 | 0.535 | 0.465 | 0.446 | 0.514 | 0.445 | 0.427 | 0.806 | 0.841 | 0.832 | 0.905 | 0.871 | 0.209 | 0.231 | 0.184 | 0.254 | 0.205
IA-LM | – | – | – | – | – | – | – | – | – | 0.787 | 0.536 | 0.723 | 0.736 | 0.729 | – | – | – | – | –
LC-2-ad | 0.889 | 1.08 | 0.722 | 0.813 | 0.722 | 0.439 | 0.437 | 0.343 | 0.233 | 0.888 | 0.864 | 0.825 | 0.823 | 0.849 | 0.493 | 0.453 | 0.491 | 0.499 | 0.488
EKVX | 0.34 | 0.285 | 0.388 | 0.343 | 0.399 | 0.336 | 0.258 | 0.303 | 0.177 | 0.812 | 0.747 | 0.787 | 0.808 | 0.903 | 0.366 | 0.322 | 0.362 | 0.39 | 0.373
